Reference: US20070203098A1, “Pten Inhibitors” (priority 2004, published 2007)
Several values for one entry are separate records, joined by “and”; a condition that tells them apart may be missing. Equal entries are not always repeated. Where two headings read alike, the source gives them in different places. Marks after values point to notes of the source that are not given here.

What was measured:
[1] = tested on: human prostate cancer cells (PC-3); assay: MTT Assay for Determining Toxicity, PC-3; type: cell-based; conditions: read-out: Viability IC50 PC-3
U87MG PTEN wt = type: cell-based
[2] = tested on: human non-small cell lung cancer cells (H1299); assay: MTT Assay for Determining Toxicity, H1299; type: cell-based; conditions: read-out: Viability IC50 H1299
MEF PTEN null = assay: Migration Assay, MEF PTEN null; type: cell-based, mouse
mouse aortic ring = assay: In Vitro Aortic Ring Angiogenesis Assay; type: cell-based; conditions: 120 h
PTEN [3] = target: T1, PTEN (Homo sapiens, UniProt P60484); assay: PTEN Inhibition Assay: IC50 Determinations; type: biochemical
T1 sequence (P60484 whole entry, species assumed): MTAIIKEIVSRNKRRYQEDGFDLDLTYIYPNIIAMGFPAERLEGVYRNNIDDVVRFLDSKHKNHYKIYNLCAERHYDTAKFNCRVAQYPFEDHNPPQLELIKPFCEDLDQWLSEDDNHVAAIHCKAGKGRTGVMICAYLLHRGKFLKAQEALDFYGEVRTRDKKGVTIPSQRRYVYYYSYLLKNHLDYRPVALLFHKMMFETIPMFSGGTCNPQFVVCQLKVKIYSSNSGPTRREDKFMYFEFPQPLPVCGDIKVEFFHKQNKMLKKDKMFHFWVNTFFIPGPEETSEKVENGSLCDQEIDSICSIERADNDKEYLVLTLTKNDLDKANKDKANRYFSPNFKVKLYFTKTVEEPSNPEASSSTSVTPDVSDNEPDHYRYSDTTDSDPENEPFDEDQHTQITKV

U87MG PTEN null = type: cell-based
[4] = tested on: HBEC (Human Brain Endothelial Cells); assay: Wound Healing Assay; type: cell-based
[5] = tested on: human brain endothelial cells (HBEC); assay: MTT Assay for Determining Toxicity, HBEC; type: cell-based; conditions: Endothelial cell, read-out: Viability IC50 HBEC
MEF PTEN wt = assay: Migration Assay, MEF PTEN wt; type: cell-based, mouse
RAC1-GTP = type: cell-based, mouse
PTP1B = target: T2, PTP1B (Homo sapiens, UniProt P18031); assay: PTP1B Inhibition Assay: IC50 Determinations; type: biochemical
T2 sequence (P18031 1-435): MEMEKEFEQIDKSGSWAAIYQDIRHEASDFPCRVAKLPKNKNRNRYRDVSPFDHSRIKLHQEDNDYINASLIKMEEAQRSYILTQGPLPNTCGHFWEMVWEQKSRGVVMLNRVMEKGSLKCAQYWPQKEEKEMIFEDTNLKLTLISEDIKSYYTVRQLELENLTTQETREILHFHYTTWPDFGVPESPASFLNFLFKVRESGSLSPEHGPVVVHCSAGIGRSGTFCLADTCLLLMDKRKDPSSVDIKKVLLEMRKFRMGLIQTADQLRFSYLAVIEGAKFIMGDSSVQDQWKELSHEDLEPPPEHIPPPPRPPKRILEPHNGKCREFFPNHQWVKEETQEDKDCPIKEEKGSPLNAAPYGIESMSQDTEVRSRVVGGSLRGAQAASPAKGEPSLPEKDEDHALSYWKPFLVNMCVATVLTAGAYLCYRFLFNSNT

PTEN [6] = target: T1, PTEN; assay: PTEN Inhibition Assay: General Screening; type: biochemical; conditions: read-out: % Inhibition @ 250 uM
GST-PTEN fusion protein = GST-PTEN fusion protein (Homo sapiens, UniProt P60484); assay: Immobilized PTEN; type: biochemical; conditions: PLV substrate
GST-PTEN fusion protein, sequence (P60484 whole entry, the tested form may be a part): as the sequence (P60484 whole entry, species assumed) above
Experimental: In the PTEN inhibition assay, to exclude the possibility that PTEN inhibitor candidates interact with the unilameller PIP3 lipid vesicle (PLV) to block PTEN and artificially mimic PTEN inhibition, PTEN was bound to a solid support and treated with inhibitor, the inhibitor washed away and then the capability of the bound PTEN to dephosphorylate PLV was determined. […] The gel was centrifuged, washed 3 times and centrifuged again. […] Then a 100 ul portion of malachite green buffer (Upstate, Charlottesville, Va.) was added to develop the color in the dark at room temperature. […] Optical density measurements were converted to nanomoles of phosphate detected using a phosphate-malachite green standard calibration curve.

[7] = MTT, serum-free, 2 hours with compound

CC(C)(C)C(=O)Nc1ccc2c(c1)C(=O)C(=O)c1ccccc1-2 [SF1670-000, N-(9,10-Dioxo-9,10-dihydro-phenanthren-2-yl)-2,2-dimethyl-propionamide]
IC50 ([1]; 2 h): 44 µM
concentration of maximal induction of migration (U87MG PTEN wt): 30 nM
IC50 ([2]; NCI-H1299, 2 h): 10 µM
migration number, Average (MEF PTEN null): 47.20 and 49.30 and 49.90 and 47.60 and 45.90
activity at 5 µM (mouse aortic ring; read-out: Branch (% of control)): 126 to 166%
activity at 5 µM (mouse aortic ring; read-out: Stem (% of control)): 107 to 196%
IC50 (PTEN [3]): 2 µM
migration number, Average (U87MG PTEN null): 60.90 and 57.20
HBEC migration across the wound, in words [4]: migrate faster
IC50 ([5]; 2 h): 5 µM
migration number, Average (MEF PTEN wt): 16.00 and 22.60 and 31.20 and 28.70 and 26.80
integrin induced activation of RAC to its GTP bound state (RAC1-GTP): augmented integrin induced activation of RAC
IC50 (PTP1B): 17 µM
inhibition at 250 µM (PTEN [6]): 100%

O=C1C(=O)c2cccnc2-c2ncccc21 [SF1720-000, 1,10-phenanthroline-5,6-dione]
IC50 [1, 7]: 7 µM
IC50 ([2]; NCI-H1299, MTT, serum-free, 2 hours with compound): < 1 µM
migration number, Average (MEF PTEN null; 125 uM, Table 4): 36.50
migration number, Average (MEF PTEN null; 250 uM, Table 4): 37.30
IC50 (PTEN [3]; Table 1, read-out: PTEN Inhibition IC50): 5 µM
IC50 (PTEN [3]; Table 25, read-out: PTEN IC50): 5 µM
IC50 (PTEN [3]; Table 29, read-out: PTEN IC50): 5 µM
selective inhibition for PTEN over PTP1B (PTEN [3]; ratio of IC50's): more than 50 fold
distance the cells have grown out ([4]; 10 nM, 2 hrs): 0.03* millimeters
distance the cells have grown out ([4]; 10 nM, 4 hrs): 0.04667 millimeters
distance the cells have grown out ([4]; 10 nM, 6 hrs): 0.08* millimeters
distance the cells have grown out ([4]; 10 nM, 24 hrs): 0.155* millimeters
distance the cells have grown out ([4]; 50 nM, 2 hrs): 0.03667 millimeters
distance the cells have grown out ([4]; 50 nM, 4 hrs): 0.04667 millimeters
distance the cells have grown out ([4]; 50 nM, 6 hrs): 0.05667* millimeters
distance the cells have grown out ([4]; 50 nM, 24 hrs): 0.1583* millimeters
distance the wound edge had moved forward ([4]; 0.111 uM, 2 hrs): 0.04333 mm
distance the wound edge had moved forward ([4]; 0.111 uM, 4 hrs): 0.05667 mm
distance the wound edge had moved forward ([4]; 0.111 uM, 6 hrs): 0.06833 mm
distance the cells have grown out ([4]; 250 nM, 2 hrs): 0.025 millimeters
distance the cells have grown out ([4]; 250 nM, 4 hrs): 0.03667 millimeters
distance the cells have grown out ([4]; 250 nM, 6 hrs): 0.05167* millimeters
distance the cells have grown out ([4]; 250 nM, 24 hrs): 0.1117* millimeters
distance the wound edge had moved forward ([4]; 0.333 uM, 2 hrs): 0.05 mm
distance the wound edge had moved forward ([4]; 0.333 uM, 4 hrs): 0.085 mm
distance the wound edge had moved forward ([4]; 0.333 uM, 6 hrs): 0.1333 mm
HBEC migration across the wound, in words ([4]; relative to no treatment control): migrate faster
inorganic phosphate detected, oriPTEN + 1720, Average (GST-PTEN fusion protein; PTEN in solution): 0.1028 nmol
inorganic phosphate detected, oriPTEN + 1720 (GST-PTEN fusion protein; PTEN in solution, single determinations): 0.0995 nmol and 0.106 nmol
inorganic phosphate detected, PTEN gel/1720 bound, Average (GST-PTEN fusion protein; immobilized PTEN pretreated 1 hour, washed): 0.1142 nmol
inorganic phosphate detected, PTEN gel/1720 bound (GST-PTEN fusion protein; immobilized PTEN pretreated 1 hour, washed, single determinations): 0.1191 nmol and 0.1093 nmol
IC50 [5, 7]: 1 µM
migration number, Average (MEF PTEN wt; 125 uM, Table 4): 18.20
migration number, Average (MEF PTEN wt; 250 uM, Table 4): 11.90
IC50 (PTP1B; Table 29, read-out: PTP1B IC50): > 250 µM
